Read-outs that look alike come from different tables or passages of the source.

For experiment [1], the system named is p21 induction in HCT 116 cells. Nature of the experiment: p21 induction in cells (In-Cell Western, p21/GAPDH ratio). The following applies: 24 h compound incubation, read-out: p21_EC50. The experiment is classed as cell-based. A digest of the protocol:
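HCT 116 cells treated 24 h at 37° C with 11-point, 2-fold dilutions typically from 10 μM, in duplicate. Fixed cells co-stained for p21 (800 nm) and GAPDH (700 nm) by In-Cell Western. p21/GAPDH ratio normalised between DMSO and reference WRN inhibitor controls, and EC50 obtained by nonlinear regression.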

The target in experiment [2] is human Werner helicase (WRN, amino acids 517-1235 with L1074F point mutation) (Homo sapiens (Human), UniProt Q14191, L1074F). Nature of the experiment: WRN (BV08) ADP-Glo assay. It counts as biochemical. The following applies: human WRN (aa 517-1235, L1074F), read-out: ADP-Glo_hWRN_IC50. The method, boiled down:
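Untagged WRN 517-1235 (L1074F), Sf9/baculovirus-expressed, 0.15 nM, preincubated 15 min with compound, then 5 μM ATP and 0.1 nM annealed DNA duplex added; 60 min at 25 °C in Bicine pH 7.5, 1 mM MgCl2, 1% DMSO. ADP-Glo luminescence; % inhibition vs DMSO and 20 μM NSC-617145 controls, four-parameter IC50 fit.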
In general terms: ADP-Glo turns the ADP formed in a reaction into a luminescent signal.

Chain of human Werner helicase (WRN, amino acids 517-1235 with L1074F point mutation) (Q14191 other isoform, or with tags, fused parts or gaps L1074F (already in the parent)): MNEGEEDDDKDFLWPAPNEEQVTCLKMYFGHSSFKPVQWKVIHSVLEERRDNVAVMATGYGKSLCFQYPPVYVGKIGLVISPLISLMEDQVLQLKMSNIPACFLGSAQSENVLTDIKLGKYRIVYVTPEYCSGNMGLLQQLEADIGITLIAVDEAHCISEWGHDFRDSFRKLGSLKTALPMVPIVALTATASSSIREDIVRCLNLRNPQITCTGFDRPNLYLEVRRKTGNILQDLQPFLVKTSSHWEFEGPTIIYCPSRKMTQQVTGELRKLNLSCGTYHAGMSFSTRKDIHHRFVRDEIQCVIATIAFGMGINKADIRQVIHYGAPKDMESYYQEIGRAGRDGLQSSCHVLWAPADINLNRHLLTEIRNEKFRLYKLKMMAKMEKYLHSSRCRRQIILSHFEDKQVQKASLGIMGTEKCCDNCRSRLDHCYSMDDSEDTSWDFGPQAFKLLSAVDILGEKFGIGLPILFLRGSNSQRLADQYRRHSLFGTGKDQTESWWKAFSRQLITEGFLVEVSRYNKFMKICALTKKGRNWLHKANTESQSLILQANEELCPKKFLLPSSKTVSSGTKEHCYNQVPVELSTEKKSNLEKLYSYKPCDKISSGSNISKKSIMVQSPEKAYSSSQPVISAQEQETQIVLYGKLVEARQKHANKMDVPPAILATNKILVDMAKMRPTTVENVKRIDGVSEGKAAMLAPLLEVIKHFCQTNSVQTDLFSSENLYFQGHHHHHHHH

As for `CCc1c(N2CCN(C(=O)c3ncnc(C)c3O)[C@H]3CC[C@@H]32)c(=O)c2nn(-c3ccnc(OC)c3)nc2n1CC(=O)NC1CC2(CC(C)C2)C1` (stereo partly drawn) [Compound I-88, 2-{5-ethyl-6-[(1S,6S)-5-(5-hydroxy-6-methylpyrimidine-4-carbonyl)-2,5-diazabicyclo[4.2.0]octan-2-yl]-2-(2-methoxypyridin-4-yl)-7-oxo-2H,4H,7H-[1,2,3]triazolo[4,5-b]pyridin-4-yl}-N-{6-methylspiro[3.3]heptan-2-yl}acetamide], in experiment [1] (Homo sapiens), the EC50 fell in the range of 500 to 2000 nM. The IC50 in experiment [2] lay within 5 to 50 nM.

Regarding `CCc1c(N2CCN(C(=O)c3c(OC)ncc(C)c3O)CC2)c(=O)c2nn(-c3ccnc(OC)c3)nc2n1CC(=O)NC12CC(CC(F)(F)F)(C1)C2` [Compound I-131, 2-{5-ethyl-6-[4-(4-hydroxy-2-methoxy-5-methylpyridine-3-carbonyl)piperazin-1-yl]-2-(2-methoxypyridin-4-yl)-7-oxo-2H,4H,7H-[1,2,3]triazolo[4,5-b]pyridin-4-yl}-N-[3-(2,2,2-trifluoroethyl)bicyclo[1.1.1]pentan-1-yl]acetamide], the EC50 in experiment [1] (Homo sapiens) fell in the range of 500 to 2000 nM. The IC50 in experiment [2] lay within 5 to 50 nM.

For `CCc1c(N2CCN(C(=O)c3c(O)ccc4ncoc34)CC2)c(=O)c2nn(-c3ccnc(OC)c3)nc2n1CC(=O)NC12CC(CC)(C1)C2` [Compound I-142, 2-{5-ethyl-6-[4-(6-hydroxy-1,3-benzoxazole-7-carbonyl)piperazin-1-yl]-2-(2-methoxypyridin-4-yl)-7-oxo-2H,4H,7H-[1,2,3]triazolo[4,5-b]pyridin-4-yl}-N-{3-ethylbicyclo[1.1.1]pentan-1-yl}acetamide], in experiment [1] (Homo sapiens), the EC50 is at most 500 nM. The IC50 in experiment [2] was in the range of 5 to 50 nM.

Take `CCc1c(N2CCN(C(=O)c3ncnc(C)c3O)[C@H]3CC[C@@H]32)c(=O)c2nn(C3=CCOCC3)nc2n1CC(=O)NC12CC(C3CC3)(C1)C2` [Compound I-26, N-(3-cyclopropylbicyclo[1.1.1]pentan-1-yl)-2-(2-(3,6-dihydro-2H-pyran-4-yl)-5-ethyl-6-((1S,6S)-5-(5-hydroxy-6-methylpyrimidine-4-carbonyl)-2,5-diazabicyclo[4.2.0]octan-2-yl)-7-oxo-2,7-dihydro-4H-[1,2,3]triazolo[4,5-b]pyridin-4-yl)acetamide]: in experiment [1] (Homo sapiens), the EC50 was at most 500 nM. Also, the IC50 in experiment [2] was 5 to 50 nM.

Turning to `CCc1c(N2CCN(C(=O)c3ncnc(C)c3O)CC2)c(=O)c2nn(-c3ccnc(OC)c3)nc2n1CC(=O)NC12CC(C3CC3)(C1)C2` [Compound I-135, N-{3-cyclopropylbicyclo[1.1.1]pentan-1-yl}-2-{5-ethyl-6-[4-(5-hydroxy-6-methylpyrimidine-4-carbonyl)piperazin-1-yl]-2-(2-methoxypyridin-4-yl)-7-ox0-2H,4H,7H-[1,2,3]triazolo[4,5-b]pyridin-4-yl}acetamide], in experiment [1] (Homo sapiens), the EC50 is at most 500 nM. The IC50 in experiment [2] was in the range of 5 to 50 nM.

`CCc1c(N2CCN(C(=O)OC)[C@H]3CC[C@@H]32)c(=O)c2nn(C3=CCOCC3)nc2n1CC(=O)NC12CC(C(C)C)(C1)C2` [Compound I-162, methyl (1S,6S)-5-[2-(3,6-dihydro-2H-pyran-4-yl)-5-ethyl-7-oxo-4-({[3-(propan-2-yl)bicyclo[1.1.1]pentan-1-yl]carbamoyl}methyl)-2H,4H,7H-[1,2,3]triazolo[4,5-b]pyridin-6-yl]-2,5-diazabicyclo[4.2.0]octane-2-carboxylate]: the EC50 in experiment [1] (Homo sapiens) is at most 500 nM. In addition, the IC50 in experiment [2] lay in the range of 5 to 50 nM.

On to `CCc1c(N2CCN(C(=O)c3c(OC)ncc(C4CCOC4)c3O)CC2)c(=O)c2nn(-c3ccnc(OC)c3)nc2n1CC(=O)NC12CC(C(C)C)(C1)C2` (centres unmarked) [Compound I-75, 2-(5-ethyl-6-{4-[4-hydroxy-2-methoxy-5-(oxolan-3-yl)pyridine-3-carbonyl]piperazin-1-yl}-2-(2-methoxypyridin-4-yl)-7-oxo-2H,4H,7H-[1,2,3]triazolo[4,5-b]pyridin-4-yl)-N-[3-(propan-2-yl)bicyclo[1.1.1]pentan-1-yl]acetamide], for which the EC50 in experiment [1] (Homo sapiens) fell in the range of 500 to 2000 nM. Moreover, the IC50 in experiment [2] is 5 to 50 nM.

On to `CCc1c(N2CCN(C(=O)c3ncnc(C)c3O)[C@H]3CC[C@@H]32)c(=O)c2nn(C3=CCOCC3)nc2n1CC(=O)Nc1ccc(C(F)F)cc1F` [Compound I-154, N-[4-(difluoromethyl)-2-fluorophenyl]-2-[2-(3,6-dihydro-2H-pyran-4-yl)-5-ethyl-6-[(1S,6S)-5-(5-hydroxy-6-methylpyrimidine-4-carbonyl)-2,5-diazabicyclo[4.2.0]octan-2-yl]-7-oxo-2H,4H,7H-[1,2,3]triazolo[4,5-b]pyridin-4-yl]acetamide], for which the EC50 in experiment [1] (Homo sapiens) is at most 500 nM. The IC50 in experiment [2] is 5 to 50 nM.

As to `CCc1c(N2CCN(C(=O)c3ncnc(C)c3O)[C@H]3CC[C@@H]32)c(=O)c2nn(-c3ccnc(OC)c3)nc2n1CC(=O)Nc1ccc(C(F)(F)F)cc1F` [Compound I-126, 2-{5-ethyl-6-[(1S,6S)-5-(5-hydroxy-6-methylpyrimidine-4-carbonyl)-2,5-diazabicyclo[4.2.0]octan-2-yl]-2-(2-methoxypyridin-4-yl)-7-oxo-2H,4H,7H-[1,2,3]triazolo[4,5-b]pyridin-4-yl}-N-[2-fluoro-4-(trifluoromethyl)phenyl]acetamide], the EC50 in experiment [1] (Homo sapiens) was at most 500 nM. Moreover, the IC50 in experiment [2] is at most 5 nM.

With `CCc1c(N2CCN(C(=O)c3ncnc(C)c3O)[C@H]3CC[C@@H]32)c(=O)c2nn(C3=CCO[C@H](C)C3)nc2n1CC(=O)NC12CC(C3CC3)(C1)C2` (single isomer, unassigned) [Compound I-181], in experiment [1], the EC50 is at most 500 nM. Moreover, in experiment [2], the IC50 was in the range of 5 to 50 nM.

Turning to `CCc1c(N2CCN(C(=O)c3ncnc(C)c3O)[C@H]3CC[C@@H]32)c(=O)c2nn(-c3ccnc(OC)c3)nc2n1CC(=O)NC1CCC2(CCC2)C1` (stereo partly drawn) [Compound I-66, 2-{5-ethyl-6-[(1S,6S)-5-(5-hydroxy-6-methylpyrimidine-4-carbonyl)-2,5-diazabicyclo[4.2.0]octan-2-yl]-2-(2-methoxypyridin-4-yl)-7-oxo-2H,4H,7H-[1,2,3]triazolo[4,5-b]pyridin-4-yl}-N-{spiro[3.4]octan-6-yl}acetamide], the EC50 in experiment [1] (Homo sapiens) was at most 500 nM. For the same molecule, in experiment [2], the IC50 was in the range of 5 to 50 nM.

Take `CCc1c(N2CCN(C(=O)c3ncnc(C)c3O)[C@H]3CC[C@@H]32)c(=O)c2nn(C3CC4(COC4)C3)nc2n1CC(=O)NC12CC(C(C)C)(C1)C2` [Compound I-160, 2-{5-ethyl-6-[(1S,6S)-5-(5-hydroxy-6-methylpyrimidine-4-carbonyl)-2,5-diazabicyclo[4.2.0]octan-2-yl]-2-{2-oxaspiro[3.3]heptan-6-yl}-7-oxo-2H,4H,7H-[1,2,3]triazolo[4,5-b]pyridin-4-yl}-N-[3-(propan-2-yl)bicyclo[1.1.1]pentan-1-yl]acetamide]: the EC50 in experiment [1] (Homo sapiens) was in the range of 2000 to 5000 nM. Also, in experiment [2], the IC50 fell in the range of 5 to 50 nM.

As for `CCc1c(N2CCN(C(=O)c3ncnc(C)c3O)[C@H](C)C2)c(=O)c2nn(-c3ccnc(OC)c3)nc2n1CC(=O)NC12CC(C3CC3)(C1)C2` [Compound I-178, N-{3-cyclopropylbicyclo[1.1.1]pentan-1-yl}-2-{5-ethyl-6-[(3R)-4-(5-hydroxy-6-methylpyrimidine-4-carbonyl)-3-methylpiperazin-1-yl]-2-(2-methoxypyridin-4-yl)-7-oxo-2H,4H,7H-[1,2,3]triazolo[4,5-b]pyridin-4-yl}acetamide], the EC50 in experiment [1] (Homo sapiens) is 500 to 2000 nM. Moreover, the IC50 in experiment [2] was 5 to 50 nM.
